Assay results from BindingDB's records for doi:10.1021/acs.jmedchem.7b00782 (Jadavpur University, 2018).

Assay: Inhibition of LAP (unknown origin)

Ki | Compound
90 µM | CC(N)B1OC(C)(C)C(C)(C)O1 (centres undefined)
56 µM | CC(C)CC(N)P(=O)(O)C(=O)N[C@H](CC(C)C)C(=O)O (some centres undefined)
0.05 µM | CC1(C)OB(C(N)Cc2ccccc2)OC1(C)C (centres undefined)
1.3 µM | CC(C)CC(N)B1OC(C)(C)C(C)(C)O1 (centres undefined)
